This is an account of results in patent US11739082B2, “Thiophene compounds, process for synthesis and use thereof” (AHAMMUNE BIOSCIENCES PRIVATE LIMITED, priority 2017, dated 2023).

In one assay the test system is human A375 cells. The assay is described as follows: Recovery of cell viability after tunicamycin-induced stress, MTT assay. The class given is cell-based. The following applies: A-375, tunicamycin 100 ng/ml, 72 h. As to the method: (§1) Methods used for Experimental Data: Mouse B16F10 or human A375 cells were seeded (5000 cells per well) in 96-well plates for 24 h. Cells were then treated in quadruplicate with multiple concentrations of compounds for 6 h. The compounds were dissolved in DMSO at 1000× concentration and then diluted to final concentration directly in cell culture medium. The vehicle control (VC) contains equal amount of DMSO. Cells were then treated with tunicamycin (Tm) (300 ng/ml for B16F10 and 100 ng/ml for A375 cells) and after 72 h of treatment, MTT assay was performed. Cell growth in vehicle control was calculated as 100% and effect of the compounds over tunicamycin treatment was calculated accordingly. EC50 values were calculated using GraphPad Prism 7 software.

Another assay has as its system mouse B16F10 cells. The assay is described as above. To be noted: B16-F10, tunicamycin 300 ng/ml, 72 h. The format is cell-based. As to the method: as §1

Structures can show the parent of a compound that is named as a salt.

Broadly, the EC50 is the concentration giving half of the maximal effect. Consider `O=C(Cc1ccc(-c2cc(Cl)cc(Cl)c2)s1)NCCN1CCS(=O)(=O)CC1` [AB1163, 2-(5-(3,5-dichlorophenyl)thiophen-2-yl)-N-(2-(1,1-dioxidothiomorpholino)ethyl)acetamide], for which the EC50 in the assay with human A375 cells was found to be 5.15 µM. In other words, the single-digit micromolar range.
Consider `O=C(Cc1ccc(-c2cccc(F)c2)s1)NCCN1CCOCC1` [AB1108, 2-(5-(3-fluorophenyl)thiophen-2-yl)-N-(2-morpholinoethyl)acetamide], for which the EC50 in the assay with human A375 cells came out at 34.2 µM; in the assay with mouse B16F10 cells it was 43.7 µM.
Consider `CCCCNC(=O)Cc1ccc(-c2ccc(Cl)cc2)s1` [AB1010, N-butyl-2-(5-(4-chlorophenyl)thiophen-2-yl)acetamide], for which the EC50 with human A375 cells is 5.22 µM; in the assay with mouse B16F10 cells, 6.55 µM.
In the assay on human A375 cells, `O=C(Cc1ccc(-c2cc(Cl)cc(Cl)c2)s1)NCCCN1CCOCC1` [AB1162, 2-(5-(3,5-dichlorophenyl)thiophen-2-yl)-N-(3-morpholinopropyl)acetamide] returned an EC50 of 6.02 µM. This counts as single-digit micromolar.
In the case of `O=C(Cc1ccc(-c2cc(Cl)cc(Cl)c2)s1)NCCN1CCOCC1` [AB1114, 2-(5-(3,5-dichlorophenyl)thiophen-2-yl)-N-(2-morpholinoethyl)acetamide], the EC50 in the assay with human A375 cells stood at 4.26 µM; in the assay with mouse B16F10 cells it was 12.5 µM.
The corresponding values for `O=C(Cc1ccc(-c2ccc(F)cc2)s1)NCCN1CCOCC1` [AB1093, 2-(5-(4-fluorophenyl)thiophen-2-yl)-N-(2-morpholinoethyl)acetamide] are 31.2 µM and 36.2 µM.
In the assay on mouse B16F10 cells, `O=C(Cc1ccc(-c2ccc(C(F)(F)F)cc2)s1)NCCN1CCOCC1` [AB1116, N-(2-morpholinoethyl)-2-(5-(4-(trifluoromethyl)phenyl)thiophen-2-yl)acetamide] showed an EC50 of 13.7 µM.
As to `O=C(Cc1ccc(-c2cccc(Cl)c2)s1)NCCN1CCOCC1` [AB1113, 2-(5-(3-chlorophenyl)thiophen-2-yl)-N-(2-morpholinoethyl)acetamide], the half-maximal effective concentration (EC50) in the assay with human A375 cells worked out at 18.3 µM; in the assay with mouse B16F10 cells it was 46.7 µM.
In the assay on human A375 cells, `O=C(Cc1ccc(-c2ccc(Cl)cc2)s1)N1CCOCC1` [AB1151, 2-(5-(4-chlorophenyl)thiophen-2-yl)-1-morpholinoethan-1-one] showed an EC50 of 10.6 µM.
As to `O=C(Cc1ccc(-c2ccc(Cl)cc2Cl)s1)NCCCN1CCOCC1` [AB1110, 2-(5-(2,4-dichlorophenyl)thiophen-2-yl)-N-(3-morpholinopropyl)acetamide], the EC50 was 62.7 µM with human A375 cells and 6.24 µM with mouse B16F10 cells.
On the same counts, the results for `O=C(Cc1ccc(-c2ccc(Cl)cc2Cl)s1)NCCN1CCOCC1` [AB1099, 2-(5-(2,4-dichlorophenyl)thiophen-2-yl)-N-(2-morpholinoethyl)acetamide] are 17.3 µM and 10 µM.
Turning to `O=C(Cc1ccc(-c2cc(Cl)cc(Cl)c2)s1)NCCCN1CCS(=O)(=O)CC1` [AB1164, 2-(5-(3,5-dichlorophenyl)thiophen-2-yl)-N-(3-(1,1-dioxidothiomorpholino)propyl)acetamide], the EC50 was determined as 3.7 µM in the assay on human A375 cells and 9.72 µM in the assay on mouse B16F10 cells.
On the same counts, the results for `O=C(Cc1ccc(-c2ccc(Cl)cc2)s1)NCCCN1CCOCC1` [AB1118, 2-(5-(4-chlorophenyl)thiophen-2-yl)-N-(3-morpholinopropyl)acetamide] are 31.6 µM and 19.5 µM.
As for `COc1ccc(-c2ccc(CC(=O)NCCN3CCOCC3)s2)cc1` [AB1115, 2-(5-(4-methoxyphenyl)thiophen-2-yl)-N-(2-morpholinoethyl)acetamide], the EC50 with mouse B16F10 cells stood at 53.4 µM.
As for `O=C(Cc1ccc(-c2ccc(Cl)cc2Cl)s1)NCCN1CCS(=O)(=O)CC1` [AB1109, 2-(5-(2,4-dichlorophenyl)thiophen-2-yl)-N-(2-(1,1-dioxidothiomorpholino)ethyl)acetamide], the EC50 in the assay with human A375 cells was determined as 13.9 µM; in the assay with mouse B16F10 cells, 6.49 µM.
On the same counts, the results for `O=C(Cc1ccc(-c2ccccc2)s1)NCCN1CCOCC1` [AB1102, N-(2-morpholinoethyl)-2-(5-phenylthiophen-2-yl)acetamide] are 71.1 µM and 55.7 µM.
As to `O=C(Cc1ccc(-c2ccc(Cl)cc2)s1)N1CCSCC1` [AB1152, 2-(5-(4-chlorophenyl)thiophen-2-yl)-1-thiomorpholinoethan-1-one], the response in the assay on human A375 cells was half-maximal at 4.86 µM (EC50).
Turning to `Cc1cc(C)n(-c2cccc(-c3ccc(CC(=O)NCCN4CCOCC4)s3)c2)n1` [AB1117, 2-(5-(3-(3,5-dimethyl-1H-pyrazol-1-yl)phenyl)thiophen-2-yl)-N-(2-morpholinoethyl) acetamide], the EC50 in the assay with human A375 cells is 26.7 µM; in the assay with mouse B16F10 cells it was 20.7 µM.
As to `O=C(Cc1ccc(-c2ccc(Cl)cc2)s1)NCCN1CCOCC1` [AB1062, 2-(5-(4-chlorophenyl)thiophen-2-yl)-N-(2-morpholinoethyl)acetamide hydrochloride], the EC50 is 48.5 µM in the assay on human A375 cells and 32.1 µM with mouse B16F10 cells.
On the same counts, the results for `O=C(Cc1ccc(-c2ccc(Cl)cc2Cl)s1)NCCCN1CCS(=O)(=O)CC1` [AB1119, 2-(5-(2,4-dichlorophenyl)thiophen-2-yl)-N-(3-(1,1-dioxidothiomorpholino)propyl)acetamide] are 8.47 µM and 9.51 µM.
